Key:
[1] = target: cGMP-inhibited 3',5'-cyclic phosphodiesterase 3B (Homo sapiens, UniProt Q13370); test: 3H-cAMP and 3H-cGMP Scintillation Proximity Assay (PDE3B)
Phosphodiesterase 6 = test: 3H-cAMP and 3H-cGMP Scintillation Proximity Assay (PDE6); assay type: tissue-based, Bos taurus, retina
[2] = target: cAMP and cAMP-inhibited cGMP 3',5'-cyclic phosphodiesterase 10A (Homo sapiens, UniProt Q9Y233); test: 3H-cAMP and 3H-cGMP Scintillation Proximity Assay (PDE10A)
[3] = target: Acetylcholinesterase (Homo sapiens) (UniProt P22303); test: Cholinesterase, Acetyl, ACES Eurofins Panlabs panel; settings: Compound concentration 10.0 uM
[4] = target: Prostaglandin G/H synthase 2 (Homo sapiens) (UniProt P35354); test: Cyclooxygenase COX-2 Eurofins Panlabs panel; settings: Compound concentration 10.0 uM
[5] = target: 3-hydroxy-3-methylglutaryl-coenzyme A reductase (Homo sapiens) (UniProt P04035); test: HMG-CoA Reductase Eurofins Panlabs panel; settings: Compound concentration 10.0 uM
Chain of 3-hydroxy-3-methylglutaryl-coenzyme A reductase (Homo sapiens) (P04035 whole entry): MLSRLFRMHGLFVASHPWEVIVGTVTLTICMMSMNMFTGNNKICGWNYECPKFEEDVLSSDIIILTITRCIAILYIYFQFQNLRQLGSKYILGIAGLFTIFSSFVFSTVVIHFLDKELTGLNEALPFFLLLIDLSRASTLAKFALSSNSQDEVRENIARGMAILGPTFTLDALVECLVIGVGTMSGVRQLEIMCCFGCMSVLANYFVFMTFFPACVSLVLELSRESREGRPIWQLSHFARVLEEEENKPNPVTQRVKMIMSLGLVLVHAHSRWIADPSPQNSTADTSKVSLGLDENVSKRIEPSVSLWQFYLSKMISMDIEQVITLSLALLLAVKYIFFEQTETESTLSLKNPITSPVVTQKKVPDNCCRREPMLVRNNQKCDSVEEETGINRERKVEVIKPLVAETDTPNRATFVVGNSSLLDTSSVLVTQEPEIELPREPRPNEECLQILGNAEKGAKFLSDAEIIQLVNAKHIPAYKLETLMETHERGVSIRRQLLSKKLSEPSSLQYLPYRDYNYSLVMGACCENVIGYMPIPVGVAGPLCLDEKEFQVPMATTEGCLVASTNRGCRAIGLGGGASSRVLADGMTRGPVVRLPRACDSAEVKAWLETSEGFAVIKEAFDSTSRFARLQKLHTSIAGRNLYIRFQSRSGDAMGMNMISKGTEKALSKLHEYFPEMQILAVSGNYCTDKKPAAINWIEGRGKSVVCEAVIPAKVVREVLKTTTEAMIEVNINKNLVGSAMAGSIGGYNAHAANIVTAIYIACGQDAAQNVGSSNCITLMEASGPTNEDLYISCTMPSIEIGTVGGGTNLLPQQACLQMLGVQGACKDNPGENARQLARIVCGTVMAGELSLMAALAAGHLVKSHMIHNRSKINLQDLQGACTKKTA

[6] = target: Polyunsaturated fatty acid lipoxygenase ALOX15 (Homo sapiens) (UniProt P16050); test: Lipoxygenase 15-LO Eurofins Panlabs panel; settings: Compound concentration 10.0 uM
[7] = target: Angiotensin-converting enzyme (Oryctolagus cuniculus) (UniProt P12822); test: Peptidase, Angiotensin Converting Enzyme Eurofins Panlabs panel; settings: Compound concentration 10.0 uM
Chain of Angiotensin-converting enzyme (Oryctolagus cuniculus) (P12822 whole entry): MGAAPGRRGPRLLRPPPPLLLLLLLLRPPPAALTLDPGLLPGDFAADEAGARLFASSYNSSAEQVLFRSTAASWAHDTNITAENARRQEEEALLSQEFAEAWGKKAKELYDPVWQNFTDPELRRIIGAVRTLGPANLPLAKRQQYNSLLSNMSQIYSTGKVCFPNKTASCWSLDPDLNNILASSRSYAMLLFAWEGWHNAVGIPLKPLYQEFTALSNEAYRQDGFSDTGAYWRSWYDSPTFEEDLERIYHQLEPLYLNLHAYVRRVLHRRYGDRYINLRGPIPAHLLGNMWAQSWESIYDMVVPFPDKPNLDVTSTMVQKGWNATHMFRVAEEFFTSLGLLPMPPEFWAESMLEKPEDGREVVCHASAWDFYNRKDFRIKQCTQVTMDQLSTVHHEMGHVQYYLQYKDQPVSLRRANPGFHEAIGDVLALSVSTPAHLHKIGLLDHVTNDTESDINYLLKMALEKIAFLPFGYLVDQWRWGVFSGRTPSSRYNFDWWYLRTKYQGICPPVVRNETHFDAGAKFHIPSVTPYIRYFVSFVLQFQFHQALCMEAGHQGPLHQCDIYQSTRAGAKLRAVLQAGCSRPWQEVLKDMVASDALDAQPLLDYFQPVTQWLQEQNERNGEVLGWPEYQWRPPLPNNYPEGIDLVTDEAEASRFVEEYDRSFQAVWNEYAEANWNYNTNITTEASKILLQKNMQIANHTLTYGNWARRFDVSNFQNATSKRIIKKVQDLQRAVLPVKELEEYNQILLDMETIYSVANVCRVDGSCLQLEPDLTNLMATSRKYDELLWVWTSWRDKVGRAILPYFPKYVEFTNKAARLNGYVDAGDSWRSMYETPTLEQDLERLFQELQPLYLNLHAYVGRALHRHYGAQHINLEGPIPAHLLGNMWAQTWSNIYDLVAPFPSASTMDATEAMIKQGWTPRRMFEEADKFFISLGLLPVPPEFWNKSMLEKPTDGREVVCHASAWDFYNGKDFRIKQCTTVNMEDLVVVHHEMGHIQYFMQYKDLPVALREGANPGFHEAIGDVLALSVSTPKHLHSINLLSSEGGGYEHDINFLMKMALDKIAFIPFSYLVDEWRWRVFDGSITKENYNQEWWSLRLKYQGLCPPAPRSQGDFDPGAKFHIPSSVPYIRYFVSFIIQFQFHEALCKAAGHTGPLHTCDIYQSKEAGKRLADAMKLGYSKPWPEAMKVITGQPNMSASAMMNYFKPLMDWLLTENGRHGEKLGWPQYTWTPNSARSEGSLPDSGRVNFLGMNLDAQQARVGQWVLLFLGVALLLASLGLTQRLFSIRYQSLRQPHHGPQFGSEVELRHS

[8] = target: Beta-3 adrenergic receptor (Homo sapiens) (UniProt P13945); test: Adrenergic beta3 Eurofins Panlabs panel; settings: concentration not given here
[9] = target: Cannabinoid receptor 1 (Homo sapiens) (UniProt P21554); test: Cannabinoid CB1 Eurofins Panlabs panel; settings: Compound concentration 10.0 uM
[10] = target: Cannabinoid receptor 2 (Homo sapiens) (UniProt P34972); test: Cannabinoid CB2 Eurofins Panlabs panel; settings: Compound concentration 10.0 uM
Chain of Cannabinoid receptor 2 (Homo sapiens) (P34972 whole entry): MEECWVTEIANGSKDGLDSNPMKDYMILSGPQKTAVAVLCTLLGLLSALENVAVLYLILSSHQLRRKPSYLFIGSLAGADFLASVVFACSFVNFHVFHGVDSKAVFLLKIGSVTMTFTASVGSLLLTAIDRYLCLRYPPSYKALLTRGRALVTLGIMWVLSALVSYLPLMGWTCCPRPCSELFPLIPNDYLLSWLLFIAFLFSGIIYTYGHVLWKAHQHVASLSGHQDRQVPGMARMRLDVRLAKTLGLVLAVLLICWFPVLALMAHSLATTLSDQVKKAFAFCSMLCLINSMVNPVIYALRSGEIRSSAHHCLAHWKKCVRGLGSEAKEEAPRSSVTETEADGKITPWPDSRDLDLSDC

[11] = target: T1, D(4) dopamine receptor (Homo sapiens) (UniProt P21917); test: Dopamine D4.2 Eurofins Panlabs panel; settings: Compound concentration 10.0 uM
T1 sequence (whole entry): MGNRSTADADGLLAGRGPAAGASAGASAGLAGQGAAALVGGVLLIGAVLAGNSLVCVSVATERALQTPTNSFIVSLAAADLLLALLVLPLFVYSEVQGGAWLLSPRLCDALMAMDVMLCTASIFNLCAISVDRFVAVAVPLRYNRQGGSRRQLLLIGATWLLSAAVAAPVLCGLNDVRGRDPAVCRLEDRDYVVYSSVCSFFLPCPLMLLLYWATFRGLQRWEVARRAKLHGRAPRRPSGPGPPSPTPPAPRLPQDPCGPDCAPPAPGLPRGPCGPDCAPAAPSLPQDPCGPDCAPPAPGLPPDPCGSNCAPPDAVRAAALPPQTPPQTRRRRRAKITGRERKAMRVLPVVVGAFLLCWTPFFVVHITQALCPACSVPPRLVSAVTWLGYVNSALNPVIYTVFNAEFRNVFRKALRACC

[12] = target: GABA-A receptor; anion channel (Rattus norvegicus) (UniProt O09028+P15431+P18506+P18508+P19969+P20236+P23574+P23576+P28471+P28473+P30191+P62813+P63079+P63138+Q91ZM7+Q9ES14); test: GABAA, Chloride Channel, TBOB Eurofins Panlabs panel; assay type: protein-complex assay; settings: Compound concentration 10.0 uM
[13] = target: Glucocorticoid receptor (Homo sapiens) (UniProt P04150); test: Glucocorticoid Eurofins Panlabs panel; settings: Compound concentration 10.0 uM
[14] = target: Growth hormone secretagogue receptor type 1 (Homo sapiens) (UniProt Q92847); test: Growth Hormone Secretagogue (GHS, Ghrelin) Eurofins Panlabs panel; settings: Compound concentration 10.0 uM
[15] = target: Motilin receptor (Homo sapiens) (UniProt O43193); test: Motilin Eurofins Panlabs panel; settings: concentration not given here
[16] = target: T2, Muscarinic acetylcholine receptor M1 (Homo sapiens) (UniProt P11229); test: Muscarinic M1 Eurofins Panlabs panel; settings: Compound concentration 10.0 uM
T2 sequence (whole entry): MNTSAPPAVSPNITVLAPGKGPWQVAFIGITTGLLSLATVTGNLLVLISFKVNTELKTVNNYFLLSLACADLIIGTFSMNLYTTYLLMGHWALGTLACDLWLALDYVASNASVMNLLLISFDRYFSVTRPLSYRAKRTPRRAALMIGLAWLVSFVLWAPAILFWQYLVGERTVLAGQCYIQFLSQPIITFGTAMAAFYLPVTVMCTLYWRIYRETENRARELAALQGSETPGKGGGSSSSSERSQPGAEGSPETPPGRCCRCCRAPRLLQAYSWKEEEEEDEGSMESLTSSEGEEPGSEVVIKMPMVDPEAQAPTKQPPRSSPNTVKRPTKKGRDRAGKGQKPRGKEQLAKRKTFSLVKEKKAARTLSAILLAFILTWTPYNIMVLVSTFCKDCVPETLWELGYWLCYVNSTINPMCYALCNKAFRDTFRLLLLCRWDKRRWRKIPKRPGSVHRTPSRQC

[17] = target: P2X receptor (Rattus norvegicus) (UniProt P51579+P49653+P51578+Q64663+P47824+P51577+P49654); test: Purinergic P2X Eurofins Panlabs panel; assay type: protein assay; settings: concentration not given here
[18] = target: T3, 5-hydroxytryptamine receptor 3A (Homo sapiens) (UniProt P46098); test: Serotonin (5-Hydroxytryptamine) 5-HT3 Eurofins Panlabs panel; settings: Compound concentration 10.0 uM
T3 sequence (whole entry): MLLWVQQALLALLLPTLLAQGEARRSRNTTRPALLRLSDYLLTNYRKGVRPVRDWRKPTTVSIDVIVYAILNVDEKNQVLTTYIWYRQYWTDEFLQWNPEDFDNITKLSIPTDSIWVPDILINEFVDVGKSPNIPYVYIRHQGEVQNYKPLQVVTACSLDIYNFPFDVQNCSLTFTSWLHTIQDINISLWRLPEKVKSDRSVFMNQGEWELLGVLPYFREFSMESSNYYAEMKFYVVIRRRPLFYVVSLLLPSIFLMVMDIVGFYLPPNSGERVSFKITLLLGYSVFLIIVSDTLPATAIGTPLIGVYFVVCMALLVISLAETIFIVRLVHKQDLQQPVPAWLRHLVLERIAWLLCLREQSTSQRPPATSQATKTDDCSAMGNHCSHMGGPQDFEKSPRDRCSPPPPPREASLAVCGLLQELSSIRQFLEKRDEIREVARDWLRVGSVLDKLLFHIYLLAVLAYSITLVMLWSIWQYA

[19] = target: Interleukin-1 receptor type 1 (Mus musculus) (UniProt P13504); test: Interleukin IL-1 Eurofins Panlabs panel; settings: Compound concentration 10.0 uM
Rattus norvegicus = species: Rattus norvegicus; test: Imidazoline I2, Central Eurofins Panlabs panel; settings: Compound concentration 10.0 uM
[20] = target: Prostaglandin F2-alpha receptor (Homo sapiens) (UniProt P43088); test: Prostanoid FP Eurofins Panlabs panel; settings: Compound concentration 10.0 uM
[21] = target: Epidermal growth factor receptor (Homo sapiens) (UniProt P00533); test: Protein Tyrosine Kinase, EGF Receptor Eurofins Panlabs panel; settings: Compound concentration 10.0 uM
Chain of Epidermal growth factor receptor (Homo sapiens) (P00533 whole entry): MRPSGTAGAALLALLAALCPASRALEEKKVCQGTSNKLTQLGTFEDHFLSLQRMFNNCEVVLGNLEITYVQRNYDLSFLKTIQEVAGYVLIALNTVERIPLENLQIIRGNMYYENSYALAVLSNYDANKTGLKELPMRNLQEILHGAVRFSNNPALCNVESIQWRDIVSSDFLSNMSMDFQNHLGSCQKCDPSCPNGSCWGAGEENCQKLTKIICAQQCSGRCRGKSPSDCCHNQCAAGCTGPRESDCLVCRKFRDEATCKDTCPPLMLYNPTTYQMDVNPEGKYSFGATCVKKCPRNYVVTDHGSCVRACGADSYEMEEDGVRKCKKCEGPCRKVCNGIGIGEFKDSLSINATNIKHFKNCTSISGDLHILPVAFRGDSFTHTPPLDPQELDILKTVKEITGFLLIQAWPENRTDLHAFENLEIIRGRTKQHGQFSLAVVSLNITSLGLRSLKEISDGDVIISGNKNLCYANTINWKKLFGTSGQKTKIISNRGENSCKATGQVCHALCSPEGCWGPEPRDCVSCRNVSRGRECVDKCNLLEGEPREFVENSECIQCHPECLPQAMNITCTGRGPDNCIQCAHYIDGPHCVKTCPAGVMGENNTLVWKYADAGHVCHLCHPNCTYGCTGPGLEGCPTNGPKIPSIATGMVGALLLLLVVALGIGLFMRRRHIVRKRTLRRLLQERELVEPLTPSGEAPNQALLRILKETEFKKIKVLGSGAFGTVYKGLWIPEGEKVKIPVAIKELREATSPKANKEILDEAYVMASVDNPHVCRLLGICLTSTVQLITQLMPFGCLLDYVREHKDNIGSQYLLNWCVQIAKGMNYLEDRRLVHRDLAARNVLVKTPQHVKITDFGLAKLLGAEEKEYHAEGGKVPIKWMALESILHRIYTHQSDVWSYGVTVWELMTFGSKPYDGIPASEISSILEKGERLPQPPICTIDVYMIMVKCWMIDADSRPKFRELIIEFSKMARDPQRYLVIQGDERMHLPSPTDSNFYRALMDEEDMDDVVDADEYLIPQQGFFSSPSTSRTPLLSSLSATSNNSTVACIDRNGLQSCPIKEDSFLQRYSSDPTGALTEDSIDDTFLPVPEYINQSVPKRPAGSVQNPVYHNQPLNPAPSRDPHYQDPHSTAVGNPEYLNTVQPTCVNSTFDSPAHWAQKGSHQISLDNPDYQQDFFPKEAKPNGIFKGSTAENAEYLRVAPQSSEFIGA

[22] = target: Alpha-1B adrenergic receptor (Homo sapiens) (UniProt P35368); settings: Compound concentration 10.0 uM
Chain of Alpha-1B adrenergic receptor (Homo sapiens) (P35368 whole entry): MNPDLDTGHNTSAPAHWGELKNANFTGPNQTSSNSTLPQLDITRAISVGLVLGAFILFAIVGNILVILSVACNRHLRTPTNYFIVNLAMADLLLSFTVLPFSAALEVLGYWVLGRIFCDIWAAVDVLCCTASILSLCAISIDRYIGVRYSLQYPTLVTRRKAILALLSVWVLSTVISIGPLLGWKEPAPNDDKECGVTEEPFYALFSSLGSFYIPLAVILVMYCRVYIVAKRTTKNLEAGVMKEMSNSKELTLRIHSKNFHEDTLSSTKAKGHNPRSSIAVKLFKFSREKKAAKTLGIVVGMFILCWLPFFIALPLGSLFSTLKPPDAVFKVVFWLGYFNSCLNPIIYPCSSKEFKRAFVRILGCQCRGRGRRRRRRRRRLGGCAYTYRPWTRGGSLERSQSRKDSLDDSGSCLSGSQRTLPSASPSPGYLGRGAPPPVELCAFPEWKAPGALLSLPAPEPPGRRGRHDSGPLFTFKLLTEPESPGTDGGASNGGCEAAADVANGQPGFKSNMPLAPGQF

[23] = target: Muscarinic acetylcholine receptor M5 (Homo sapiens) (UniProt P08912); settings: Compound concentration 10.0 uM
Chain of Muscarinic acetylcholine receptor M5 (Homo sapiens) (P08912 whole entry): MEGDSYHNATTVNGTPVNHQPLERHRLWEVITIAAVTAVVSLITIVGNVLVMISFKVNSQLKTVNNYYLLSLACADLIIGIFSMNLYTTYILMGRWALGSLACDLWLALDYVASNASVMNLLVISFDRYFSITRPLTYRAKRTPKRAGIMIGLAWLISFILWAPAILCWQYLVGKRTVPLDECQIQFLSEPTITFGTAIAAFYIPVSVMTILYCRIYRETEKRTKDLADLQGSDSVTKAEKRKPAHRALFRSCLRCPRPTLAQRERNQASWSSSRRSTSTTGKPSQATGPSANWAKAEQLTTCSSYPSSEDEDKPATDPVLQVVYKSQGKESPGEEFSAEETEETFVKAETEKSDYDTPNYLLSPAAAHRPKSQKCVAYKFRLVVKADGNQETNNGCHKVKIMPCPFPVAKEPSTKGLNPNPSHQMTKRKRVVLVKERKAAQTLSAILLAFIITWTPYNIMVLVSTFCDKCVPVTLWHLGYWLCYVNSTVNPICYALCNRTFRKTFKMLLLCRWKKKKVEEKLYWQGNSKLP

[24] = target: 3',5'-cyclic-AMP phosphodiesterase 4A (Homo sapiens) (UniProt P27815); test: Panlabs assay PDE4A1A; set-up: compound concentration 10 uM; settings: at 10 µM
[25] = target: High affinity 3',5'-cyclic-AMP phosphodiesterase 7A (Homo sapiens) (UniProt Q13946); test: Panlabs assay PDE7A; set-up: compound concentration 10 uM; settings: at 10 µM

In the case of `CCC[C@H]1CNCc2c1[nH]c(=O)c(C#N)c2N1CCC2(CC1)CC2`, the IC50 [1] is reported as > 10 µM (not active), the IC50 (Phosphodiesterase 6) is reported as 1.56 µM and the IC50 [2] is reported as > 10 µM (not active). The inhibition [3] was 5%, the inhibition [4] was -5% and the inhibition [5] was 8%. For the same compound, the inhibition [6] was -6%, the inhibition [7] was 4% and the inhibition [8] was 0%. For the same compound, the inhibition [9] was 31.2%, the inhibition [10] was -1% and the inhibition [11] was 2%. For the same compound, the inhibition [12] was 4%, the inhibition [13] was 4.67% and the inhibition [14] was 9%. It also gave an inhibition [15] of 0%, an inhibition [16] of -4% and an inhibition [17] of 0%. The inhibition [18] was 3.75%, the inhibition [19] was 14% and the inhibition (Rattus norvegicus) was 32.5%. For the same compound, the inhibition [20] was 13%, the inhibition [21] was 9% and the inhibition [22] was 4.43%. The inhibition [23] was -6.97%.

`CCC[C@@H]1CNCc2c1[nH]c(=O)c(C#N)c2N1CCC2(CC1)CC2` was tested, and the inhibition [24] was 6.8% and the inhibition [25] was -1.6%.

Reference: ChEMBL document CHEMBL5303765, “Data for DCP probe BAY-7081” (2023)
